Patent US20210163404A1, “NOVEL UREA COMPOUNDS AND BIOISOSTERES THEREOF AND THEIR USE FOR TREATING INFLAMMATION AND INFLAMMATION-RELATED PATHOLOGIES” (UNIVERSITÉ LAVAL, priority 2017, published 2021)
Several values for one entry are separate records, joined by “and”; a condition that tells them apart may be missing. Equal entries are not always repeated. Where two headings read alike, the source gives them in different places.

Columns and labels:
[1] = tested on: A549 adenocarcinoma alveolar epithelial cancer cells; assay: Antiproliferative activity (NCI procedure, sulforhodamine B), A549; assay type: cell-based, human; details: 48 h; for GI50: Table 2; for IC50: Table 6, unit inferred, tested 781 nM to 100 μM
In short: (§1)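 Cells seeded in DMEM, grown 24 h at 37 °C, then exposed 48 h to serial dilutions from 100 μM to 781 nM (DMSO <0.5%). TCA fixation, sulforhodamine B staining, absorbance at 530-568 nm; growth inhibition relative to plates fixed on treatment day. At least two experiments in triplicate.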

[2] = tested on: HaCaT cells; assay: Cell cycle analysis by flow cytometry; assay type: cell-based, human; details: for Cell cycle progression G0-G1 / Cell cycle progression G2-M / Cell cycle progression S: 10 μM, 24 h; for effect on cell cycle progression: in words
Description: The effect of compounds 3a-b, 4e, 5b-c, 6a and 6e on cell cycle progression was subsequently assessed using a flow cytometer in accordance with established experimental protocols to evaluate any potential drug toxicity at specific phases of the cell cycle (Table 3).
HaCaT cells (2.5×10^5) were incubated with compounds 3a-b, 4e, 5b-c, 6a and 6e and curcumin (10 μM) over a period of 24 h. The cells were subsequently trypsinized, washed with PBS, resuspended in PBS (250 μL), fixed by the addition of ice-cold EtOH (750 μL) under agitation and stored at −20° C. until analysis. Prior to FACS analysis, cells were washed with PBS and resuspended in PBS (500 μL) containing 4′,6′-diamidino-2-phenylindole (DAPI) (2 μg/mL). The cell cycle was analyzed using an LSR II flow cytometer (BD Biosciences, Franklin Lakes, N.J.).

[3] = tested on: IL-6; assay: IL-6 expression in HaCaT cells stimulated with IL-17A and TNFα (ELISA); assay type: cell-based, human; details: for Expression of IL-6, HaCaT: 10 μM solutions, HaCaT stimulated with IL-17A and TNFα, mean of five experiments in duplicate; for inhibitory effect on IL-6 expression in HaCaT cells: 10 μM, stimulated with IL-17A and TNFα; for inhibitory effect on IL-6 expression in HaCaT cells / effect on the expression of IL-6 by HaCaT cells: in words; for effect on the expression of IL-6 by HaCaT cells: HaCaT cells treated with IL-17 and TNFα
From the text: The effect of compounds 3a-b, 4a-e, 5a-e and 6a-e on the expression of IL-6 was subsequently assessed using the HaCaT spontaneously transformed aneuploid immortal keratinocyte cell line, stimulated by the addition of IL-17A and TNFα in the culture medium (Table 1). Curcumin and ibuprofen were used as known IL-6 expression inhibitors. DMSO was used for solubilizing the drugs. […] Indeed, the inhibitory effect of these molecules was at least equivalent to that of curcumin [27] and ibuprofen, both recognized as anti-inflammatory drugs. The inhibitory effect of the substituted phenyl cycloalkylureas in accordance with an embodiment of the present disclosure on proinflammatory cytokines was also found at the mRNA level. Indeed, the mRNAs of the cytokines IL-6 and TNF-α as well as the mRNA of the chemokine IL-8 were lowered in TNF-α/IL-17A-stimulated HaCaT cells. Similar results were obtained in THP-1 cells stimulated with LPS where treatments with CHEU and 4e diminished the mRNA levels of the cytokines IL-1B, IL-6 and TNF-α in addition to the mRNA levels of the chemokine IL-8. It is surmised that the anti-inflammatory mechanism of action of the compounds of the present disclosure is likely mediated, at least in part, by modulating the phosphorylation state of the MAP kinase p38. […] Addition of a compound in accordance with an embodiment of the present disclosure, prior to stimulation with the aforementioned cytokines, decreases the level of p-p38 at 30-60 minutes post-stimulation. This diminution in p-p38 levels destabilizes the mRNAs of pro-inflammatory cytokines, non-limiting examples of which include TNF-α and IL-6. Moreover, it is surmised that the effect of the compounds of the present disclosure on p-p38 is potentially mediated by the activation of the phosphatase named DUSP1.
HaCaT cells (1×10^5) were suspended in DMEM culture media (500 μL) and incubated for 24 h in 24-well microtiter plates at 37° C. in a moisture-saturated atmosphere containing 5% CO2. Compounds were solubilized in DMSO and diluted in fresh DMEM. The compound (500 μL) was then added to the cell medium to obtain a final concentration of […] and the cells incubated over a period of 1 hour. In the meantime, IL-17α (200 ng/mL) and TNFα (20 ng/mL) (PeproTech, Rocky Hill, N.J.) were added to the drug solution in DMEM. Following the initial incubation of the cells, the culture medium was aspirated from each well and the IL-17α+ TNFα+ compound solution was added to each well for incubation (6 hours). The culture media was then removed and transferred to a clean tube (1.5 mL) at −80° C. until the ELISA test was performed. The presence of IL-6 in the cell media was determined using an IL-6 human Duoset ELISA kit (Fisher Scientific, Ottawa, On.) according to the manufacturer's instructions. Standards and samples were prepared and assessed in duplicate. Two separate replicates were performed for each sample. The absorbance was measured at 450 nm and 540 nm using a TECAN infinite M1000 plate reader.

[4] = tested on: HDFn neonatal dermal fibroblast cell line; assay: Antiproliferative activity (NCI procedure, sulforhodamine B), HDFn; assay type: cell-based, human; details: 48 h; for GI50: Table 2; for IC50: Table 6, unit inferred, tested 781 nM to 100 μM
In short: as §1

[5] = tested on: HaCaT keratinocyte cell line; assay: Antiproliferative activity (NCI procedure, sulforhodamine B), HaCaT; assay type: cell-based, human; details: 48 h; for GI50: Table 2; for IC50: Table 6, unit inferred, tested 781 nM to 100 μM
In short: as §1

[6] = tested on: HT-29 colon adenocarcinoma cells; assay: Antiproliferative activity (NCI procedure, sulforhodamine B), HT-29; assay type: cell-based, human; details: 48 h; for GI50: Table 2; for IC50: Table 6, unit inferred, tested 781 nM to 100 μM
In short: as §1

[7] = tested on: IL-6; assay: IL-6 expression in HaCaT cells stimulated with IL-17A and TNFα (ELISA); assay type: cell-based; details: Homo sapiens, read-out: Reduction IL-6 (%)
[8] = tested on: cancer cell lines; details: background, refs [4, 5]; in words; cited from earlier work

| melting point | SMILES | GI50 ([1]; Homo sapiens, A549) [µM] | IC50 ([1]; Homo sapiens, A549) [µM] | Cell cycle progression G0-G1 [2] | Cell cycle progression G2-M [2] | Cell cycle progression S [2] | Expression of IL-6, HaCaT [3] [pg/mL] | inhibitory effect on IL-6 expression in HaCaT cells [3] | GI50 ([4]; Homo sapiens, Fibroblast) [µM] | IC50 ([4]; Homo sapiens, Fibroblast) [µM] | GI50 ([5]; Homo sapiens, HaCaT) [µM] | IC50 ([5]; Homo sapiens, HaCaT) [µM] | GI50 ([6]; Homo sapiens, HT-29) [µM] | IC50 ([6]; Homo sapiens, HT-29) [µM] | effect on cell cycle progression [2] | other results |
| --- | --- | --- | --- | --- | --- | --- | --- | --- | --- | --- | --- | --- | --- | --- | --- | --- |
| 159 to 160 °C | O=C(NCC1CCC1)Nc1ccc(I)cc1 [Compound 23, 1-(Cyclobutylmethyl)-3-(4-iodophenyl)urea] | 27 | 27 | 45 | 29.4 | 25.6 | 33.9 ± 4.3 | significant inhibitory effect | 74 | 74 | 62 | 62 | 29 | 29 | – | – |
| 218 to 223 °C and 219 to 221 °C | CC(C)(C)c1ccc(NC(=O)NC2CCCC2)cc1 [Compound 31, 1-(4-(t-Butyl)phenyl)-3-cyclopentylurea] | 83 | 83 | 48 | 25.8 | 25.1 | 127.5 ± 17.3 | – | > 100 | ≥ 100 | > 100 | ≥ 100 | > 100 | ≥ 100 | did not affect the cell cycle progression | – |
| 126 to 127 °C | CC(C)(C)c1cccc(NC(=O)NCC2CCC2)c1 [Compound 47, 1-(3-(t-Butyl)phenyl)-3-(cyclobutylmethyl)urea] | 37 | 37 | 46.1 | 30.4 | 23.5 | 47.5 ± 3.3 | significant inhibitory effect | 21 | 21 | 39 | 39 | 43 | 43 | – | – |
| 172 to 173 °C | O=C(NCC1CCC1)Nc1ccc(C2CCCCC2)cc1 [Compound 57, 1-(Cyclobutylmethyl)-3-(4-cyclohexylphenyl)urea] | > 100 | ≥ 100 | – | – | – | 64.1 ± 5.4 | significant inhibitory effect | > 100 | ≥ 100 | > 100 | ≥ 100 | > 100 | ≥ 100 | – | – |
| 197 to 199 °C | O=C(Nc1ccc(C2CCCCC2)cc1)NC1CCCC1 [Compound 58, 1-(4-Cyclohexylphenyl)-3-cyclopentylurea] | 11 | 11 | 50.1 | 25.2 | 24.7 | 50.3 ± 4.7 | significant inhibitory effect | 56 | 56 | 82 | 82 | 13 | 13 | did not affect the cell cycle progression | – |
| 136 to 139 °C | CCNC(=O)Nc1ccc(C(C)(C)C)cc1 [Compound 63, 1-(4-(t-Butyl)phenyl)-3-ethylurea] | 69 | 69 | – | – | – | 81.9 ± 10.8 | – | 60 | 60 | > 100 | ≥ 100 | 75 | 75 | – | Cell cycle progression G0-G1 ([2]; listed as 3a): 44; Cell cycle progression G2-M ([2]; listed as 3a): 31; Cell cycle progression S ([2]; listed as 3a): 25.1 |
| – | COc1cc(/C=C/C(=O)CC(=O)/C=C/c2ccc(O)c(OC)c2)ccc1O [Curcumin, reference compound] | 9.9 | – | 14.8 | 77.1 | 8.1 | 62.8 ± 12.0 | – | 7.6 | – | 7 | – | 4.2 | – | clearly arresting the cell cycle progression in the G2-M phase | – |
| – | C[C@@H]1C[C@H]2[C@@H]3CCC4=CC(=O)C=C[C@]4(C)[C@@]3(F)[C@@H](O)C[C@]2(C)[C@@]1(O)C(=O)CO [Dexamethasone] | – | – | – | – | – | – | – | – | – | – | – | – | – | – | inhibition at 1 µM ([7]; Table 6, HaCaT stimulated with IL-17A and TNFα): 45.3%; inhibition at 1 µM ([7]; Table 8, HaCaT stimulated with IL-17A and TNFα): 54.5% |
| – | CC(C)Cc1ccc(C(C)C(=O)O)cc1 (stereo not shown) [Ibuprofen, reference compound] | > 100 | – | 57.9 | 16.3 | 25.6 | 120.3 ± 18.6 | – | > 100 | – | > 100 | – | > 100 | – | – | – |
| – | O=C(NCCCl)Nc1ccc(C2CCCCC2)cc1 [cHCEU, 1-(2-chloroethyl)-3-(p-cyclohexylphenyl)urea, reference compound] | 12 | – | 56.5 | 19.1 | 24.4 | 46.8 ± 8.5 | – | 11 | – | 27 | – | 15 | – | – | effect on the expression of IL-6 by HaCaT cells [3]: significant decrease; antiproliferative activity on numerous cancer cell lines [8]: potent antiproliferative activity |
| – | CC(C)(C)c1ccc(NC(=O)NCCCl)cc1 [tBCEU, reference compound] | – | – | 57.3 | 15.6 | 26.8 | 130.6 ± 15.6 | – | – | – | – | – | – | – | arresting the cell cycle progression in the G2-M phase | GI50 [1]: 6.9 µM; effect on the expression of IL-6 by HaCaT cells [3]: significant decrease; antiproliferative activity on numerous cancer cell lines [8]: potent antiproliferative activity; GI50 [4]: 11 µM; GI50 [5]: 12 µM; GI50 [6]: 6.5 µM |
